Measured values published in patent publication US12275731B2, “Azaindole inhibitors of wild-type and mutant forms of LRRK2” (DANA-FARBER CANCER INSTITUTE, INC., priority 2018, dated 2025).

How the values were obtained:
Assay in all cases: KinomeScan profiling
Assay type in all cases: binding
[1] = target: T1, RSK1(Kin.Dom.1-N-terminal) (Homo sapiens, UniProt Q15418); conditions: read-out: % control
T1 construct: RSK1(Kin.Dom.1-N-terminal)
Procedure: (§1) The kinase selectivity of inventive compounds 77, 96 and 101 was evaluated by KinomeScan®. KinomeScan® analysis was performed against a near comprehensive panel of 468 kinases. The control percentage (% control) for inventive compounds at 1 μM in DMSO was determined by Equation 1: % control=(inventive compound−positive control)/(negative control−positive control)×100%, Equation 1
(§2) wherein the positive control is a compound with a % control value of 0% relative light units (RLU), and the negative control (i.e., DMSO) has % control value of 100% RLU. The enzyme selectivity in the present invention is defined as follows: inventive compounds are considered active for an enzyme when the observed % control is less than 35% (<35%).

PIP5K1A = target: T2, PIP5K1A (Homo sapiens, UniProt Q99755); conditions: read-out: % control
T2 construct: purchased KinomeScan® (panel service)
Procedure: as §1, §2

TRKC = TRKC (Homo sapiens, UniProt Q16288); conditions: read-out: % control
Procedure: as §1, §2

PRKG1 = target: T3, PRKG1 (Homo sapiens, UniProt Q13976); conditions: PRKG1, 1 μM; read-out: % control
T3 sequence (Q13976 1-671): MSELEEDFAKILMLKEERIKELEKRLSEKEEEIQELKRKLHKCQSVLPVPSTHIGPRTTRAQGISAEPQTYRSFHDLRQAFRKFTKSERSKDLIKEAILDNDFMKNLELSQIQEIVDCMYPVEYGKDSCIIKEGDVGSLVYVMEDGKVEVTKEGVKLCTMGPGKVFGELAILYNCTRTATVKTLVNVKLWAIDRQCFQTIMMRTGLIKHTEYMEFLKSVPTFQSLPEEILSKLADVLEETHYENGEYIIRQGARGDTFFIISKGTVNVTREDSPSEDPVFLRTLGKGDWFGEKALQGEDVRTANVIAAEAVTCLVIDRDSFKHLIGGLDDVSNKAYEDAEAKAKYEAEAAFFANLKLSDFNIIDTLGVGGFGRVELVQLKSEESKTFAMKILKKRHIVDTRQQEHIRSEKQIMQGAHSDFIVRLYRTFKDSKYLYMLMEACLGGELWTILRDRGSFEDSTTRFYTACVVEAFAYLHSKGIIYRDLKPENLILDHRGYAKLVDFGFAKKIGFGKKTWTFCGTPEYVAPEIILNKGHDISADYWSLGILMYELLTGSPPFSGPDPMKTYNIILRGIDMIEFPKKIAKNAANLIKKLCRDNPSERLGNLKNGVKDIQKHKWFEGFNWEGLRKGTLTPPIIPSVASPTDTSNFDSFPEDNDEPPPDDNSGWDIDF
Procedure: as §1, §2

LTK = LTK (Homo sapiens, UniProt P29376); conditions: read-out: % control
Procedure: as §1, §2

MEK2 = MEK2 (Homo sapiens, UniProt P36507); conditions: MEK2, 1 μM; read-out: % control
Procedure: as §1, §2

PIP5K1C = target: T4, PIP5K1C (Homo sapiens, UniProt O60331); conditions: read-out: % control
T4 construct: purchased KinomeScan® (panel service)
Procedure: as §1, §2

MAP4K4 = MAP4K4 (Homo sapiens, UniProt O95819); conditions: MAP4K4, 1 μM; read-out: % control
Procedure: as §1, §2

TLK2 = TLK2 (Homo sapiens, UniProt Q86UE8); conditions: TLK2, 1 μM; read-out: % control
Procedure: as §1, §2

JNK3 = target: T5, JNK3 (Homo sapiens, UniProt P53779); conditions: JNK3, 1 μM; read-out: % control
T5 construct: purchased KinomeScan®
Procedure: as §1, §2

NDR1 = NDR1 (Homo sapiens, UniProt Q15208); conditions: NDR1, 1 μM; read-out: % control
Procedure: as §1, §2

CSNK1G3 = CSNK1G3 (Homo sapiens, UniProt Q9Y6M4); conditions: CSNK1G3, 1 μM; read-out: % control
Procedure: as §1, §2

CTK = target: T6, CTK (Homo sapiens, UniProt P42679); conditions: read-out: % control
T6 sequence (P42679 1-507): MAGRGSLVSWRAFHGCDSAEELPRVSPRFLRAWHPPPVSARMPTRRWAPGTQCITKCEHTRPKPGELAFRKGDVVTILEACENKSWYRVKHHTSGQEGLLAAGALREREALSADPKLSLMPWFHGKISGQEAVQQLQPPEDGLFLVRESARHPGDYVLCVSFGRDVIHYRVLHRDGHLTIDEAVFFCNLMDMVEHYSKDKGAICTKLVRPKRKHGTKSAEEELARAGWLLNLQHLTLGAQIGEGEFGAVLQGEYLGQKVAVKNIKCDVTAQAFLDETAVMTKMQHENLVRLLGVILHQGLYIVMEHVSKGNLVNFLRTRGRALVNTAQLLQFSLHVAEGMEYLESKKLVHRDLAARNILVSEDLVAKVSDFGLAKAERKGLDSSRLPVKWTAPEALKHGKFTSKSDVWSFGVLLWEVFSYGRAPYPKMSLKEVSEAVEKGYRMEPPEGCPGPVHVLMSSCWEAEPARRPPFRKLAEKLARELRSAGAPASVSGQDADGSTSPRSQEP
Procedure: as §1, §2

PKNB(M. tuberculosis) = PKNB(M. tuberculosis) (Mycobacterium tuberculosis, UniProt P9WI81); conditions: read-out: % control
Chain of PKNB(M. tuberculosis) (P9WI81 whole entry): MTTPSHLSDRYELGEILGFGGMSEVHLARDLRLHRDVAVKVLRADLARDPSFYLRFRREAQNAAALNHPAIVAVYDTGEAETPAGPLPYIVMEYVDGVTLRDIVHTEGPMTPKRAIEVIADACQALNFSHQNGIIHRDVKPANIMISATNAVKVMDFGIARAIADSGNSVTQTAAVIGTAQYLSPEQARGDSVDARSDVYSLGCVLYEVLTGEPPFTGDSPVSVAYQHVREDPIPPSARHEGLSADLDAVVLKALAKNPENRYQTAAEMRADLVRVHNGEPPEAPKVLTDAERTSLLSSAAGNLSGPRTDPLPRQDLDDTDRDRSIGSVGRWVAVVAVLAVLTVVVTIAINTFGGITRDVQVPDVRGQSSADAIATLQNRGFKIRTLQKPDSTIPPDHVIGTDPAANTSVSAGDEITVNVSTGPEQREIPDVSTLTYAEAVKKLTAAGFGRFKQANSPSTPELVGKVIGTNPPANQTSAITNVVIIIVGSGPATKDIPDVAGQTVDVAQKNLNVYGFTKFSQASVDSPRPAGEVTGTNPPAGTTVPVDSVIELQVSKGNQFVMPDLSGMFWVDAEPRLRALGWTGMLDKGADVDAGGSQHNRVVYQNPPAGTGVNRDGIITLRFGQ

Chain of CSNK1G3 (Q9Y6M4 whole entry): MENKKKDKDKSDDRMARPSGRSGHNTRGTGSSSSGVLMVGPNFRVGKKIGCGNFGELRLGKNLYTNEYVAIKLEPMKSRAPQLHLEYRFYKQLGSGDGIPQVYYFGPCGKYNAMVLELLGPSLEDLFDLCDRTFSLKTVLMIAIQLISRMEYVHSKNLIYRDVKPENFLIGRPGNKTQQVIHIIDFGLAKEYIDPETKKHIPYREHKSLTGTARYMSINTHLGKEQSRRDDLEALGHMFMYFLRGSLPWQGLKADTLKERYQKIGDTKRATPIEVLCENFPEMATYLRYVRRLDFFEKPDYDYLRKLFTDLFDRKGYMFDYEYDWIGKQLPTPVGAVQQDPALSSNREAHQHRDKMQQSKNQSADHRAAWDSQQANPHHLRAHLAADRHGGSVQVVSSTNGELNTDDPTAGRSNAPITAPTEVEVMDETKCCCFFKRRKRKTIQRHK
Chain of TRKC (Q16288 32-839): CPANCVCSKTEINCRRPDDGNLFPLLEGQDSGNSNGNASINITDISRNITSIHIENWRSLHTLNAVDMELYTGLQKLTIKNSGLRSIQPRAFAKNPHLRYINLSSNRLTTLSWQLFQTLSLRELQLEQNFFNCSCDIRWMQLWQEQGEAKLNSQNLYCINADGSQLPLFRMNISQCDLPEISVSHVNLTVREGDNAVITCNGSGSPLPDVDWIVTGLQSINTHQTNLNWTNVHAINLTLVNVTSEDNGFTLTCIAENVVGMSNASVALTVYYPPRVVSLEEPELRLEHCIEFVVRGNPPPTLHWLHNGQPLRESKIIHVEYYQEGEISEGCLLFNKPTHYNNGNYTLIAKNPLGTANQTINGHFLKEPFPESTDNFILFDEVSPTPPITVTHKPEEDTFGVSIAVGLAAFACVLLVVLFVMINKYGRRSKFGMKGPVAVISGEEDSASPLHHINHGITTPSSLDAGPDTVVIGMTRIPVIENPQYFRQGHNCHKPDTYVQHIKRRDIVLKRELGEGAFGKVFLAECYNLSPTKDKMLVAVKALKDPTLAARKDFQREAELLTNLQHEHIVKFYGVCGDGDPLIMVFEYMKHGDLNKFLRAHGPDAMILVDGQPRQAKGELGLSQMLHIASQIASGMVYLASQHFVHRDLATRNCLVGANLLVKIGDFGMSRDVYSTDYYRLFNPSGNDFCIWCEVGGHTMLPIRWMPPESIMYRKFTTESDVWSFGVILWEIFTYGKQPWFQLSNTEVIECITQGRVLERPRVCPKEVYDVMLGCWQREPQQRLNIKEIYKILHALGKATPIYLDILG
T5 sequence (P53779 whole entry): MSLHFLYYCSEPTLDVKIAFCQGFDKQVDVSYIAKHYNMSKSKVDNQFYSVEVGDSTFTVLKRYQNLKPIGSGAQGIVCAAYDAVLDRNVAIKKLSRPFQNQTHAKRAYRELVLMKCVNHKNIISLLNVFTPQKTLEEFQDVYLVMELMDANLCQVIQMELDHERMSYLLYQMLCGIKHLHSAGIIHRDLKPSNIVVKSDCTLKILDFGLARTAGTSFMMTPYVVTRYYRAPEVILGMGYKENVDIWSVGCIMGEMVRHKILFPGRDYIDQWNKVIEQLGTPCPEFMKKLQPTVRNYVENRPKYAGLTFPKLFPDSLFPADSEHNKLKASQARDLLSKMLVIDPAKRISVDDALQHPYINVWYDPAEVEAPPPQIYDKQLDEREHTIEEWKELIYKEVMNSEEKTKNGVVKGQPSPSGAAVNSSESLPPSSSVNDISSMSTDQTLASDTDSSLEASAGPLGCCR
Chain of MEK2 (P36507 whole entry): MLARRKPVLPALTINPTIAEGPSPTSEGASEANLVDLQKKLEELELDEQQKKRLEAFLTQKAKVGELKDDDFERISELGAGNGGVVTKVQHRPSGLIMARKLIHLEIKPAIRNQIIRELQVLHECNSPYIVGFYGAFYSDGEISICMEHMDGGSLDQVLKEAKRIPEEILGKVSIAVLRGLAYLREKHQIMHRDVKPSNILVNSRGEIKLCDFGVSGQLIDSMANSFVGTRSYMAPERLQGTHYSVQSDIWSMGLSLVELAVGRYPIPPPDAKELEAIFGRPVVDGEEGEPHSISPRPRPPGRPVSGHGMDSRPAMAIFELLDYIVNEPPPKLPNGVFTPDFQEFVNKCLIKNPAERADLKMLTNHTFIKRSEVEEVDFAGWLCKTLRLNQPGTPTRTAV
Chain of NDR1 (Q15208 whole entry): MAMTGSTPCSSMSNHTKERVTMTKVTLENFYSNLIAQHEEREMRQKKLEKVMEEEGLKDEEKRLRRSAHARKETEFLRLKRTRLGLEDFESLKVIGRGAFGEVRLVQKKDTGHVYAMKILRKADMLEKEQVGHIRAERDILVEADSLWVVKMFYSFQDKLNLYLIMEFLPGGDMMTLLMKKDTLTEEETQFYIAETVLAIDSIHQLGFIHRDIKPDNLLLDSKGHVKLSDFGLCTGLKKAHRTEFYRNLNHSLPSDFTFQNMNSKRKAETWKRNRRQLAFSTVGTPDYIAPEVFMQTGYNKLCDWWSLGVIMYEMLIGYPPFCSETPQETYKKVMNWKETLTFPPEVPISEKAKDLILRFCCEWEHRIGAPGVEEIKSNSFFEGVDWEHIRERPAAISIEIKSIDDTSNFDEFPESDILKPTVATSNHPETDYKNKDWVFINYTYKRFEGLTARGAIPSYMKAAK
T1 sequence (Q15418 62-321 limits assumed): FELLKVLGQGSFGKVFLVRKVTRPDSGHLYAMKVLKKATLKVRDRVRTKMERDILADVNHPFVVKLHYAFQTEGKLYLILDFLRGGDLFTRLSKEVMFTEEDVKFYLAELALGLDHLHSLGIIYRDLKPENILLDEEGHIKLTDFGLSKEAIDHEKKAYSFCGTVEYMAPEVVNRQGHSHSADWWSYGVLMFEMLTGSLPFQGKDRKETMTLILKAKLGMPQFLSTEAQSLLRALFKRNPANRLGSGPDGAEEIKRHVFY
Chain of TLK2 (Q86UE8 whole entry): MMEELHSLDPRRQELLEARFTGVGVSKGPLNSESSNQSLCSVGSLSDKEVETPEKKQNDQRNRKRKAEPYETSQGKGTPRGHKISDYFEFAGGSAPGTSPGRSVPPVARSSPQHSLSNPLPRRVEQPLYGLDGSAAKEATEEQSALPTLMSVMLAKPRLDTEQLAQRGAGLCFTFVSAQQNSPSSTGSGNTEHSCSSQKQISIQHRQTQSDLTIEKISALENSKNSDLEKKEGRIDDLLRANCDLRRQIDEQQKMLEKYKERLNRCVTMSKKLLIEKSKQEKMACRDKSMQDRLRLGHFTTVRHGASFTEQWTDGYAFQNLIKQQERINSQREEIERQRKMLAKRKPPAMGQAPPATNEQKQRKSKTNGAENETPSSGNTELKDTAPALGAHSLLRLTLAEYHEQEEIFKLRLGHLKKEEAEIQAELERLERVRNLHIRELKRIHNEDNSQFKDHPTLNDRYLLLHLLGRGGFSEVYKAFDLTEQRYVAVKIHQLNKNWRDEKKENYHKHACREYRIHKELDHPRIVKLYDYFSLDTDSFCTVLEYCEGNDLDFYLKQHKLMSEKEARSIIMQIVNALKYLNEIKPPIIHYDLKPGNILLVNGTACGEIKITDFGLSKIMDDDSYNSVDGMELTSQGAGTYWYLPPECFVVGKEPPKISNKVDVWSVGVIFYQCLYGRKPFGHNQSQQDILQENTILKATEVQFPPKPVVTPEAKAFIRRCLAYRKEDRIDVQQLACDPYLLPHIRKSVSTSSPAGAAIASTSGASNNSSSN
T2 sequence (Q99755 whole entry): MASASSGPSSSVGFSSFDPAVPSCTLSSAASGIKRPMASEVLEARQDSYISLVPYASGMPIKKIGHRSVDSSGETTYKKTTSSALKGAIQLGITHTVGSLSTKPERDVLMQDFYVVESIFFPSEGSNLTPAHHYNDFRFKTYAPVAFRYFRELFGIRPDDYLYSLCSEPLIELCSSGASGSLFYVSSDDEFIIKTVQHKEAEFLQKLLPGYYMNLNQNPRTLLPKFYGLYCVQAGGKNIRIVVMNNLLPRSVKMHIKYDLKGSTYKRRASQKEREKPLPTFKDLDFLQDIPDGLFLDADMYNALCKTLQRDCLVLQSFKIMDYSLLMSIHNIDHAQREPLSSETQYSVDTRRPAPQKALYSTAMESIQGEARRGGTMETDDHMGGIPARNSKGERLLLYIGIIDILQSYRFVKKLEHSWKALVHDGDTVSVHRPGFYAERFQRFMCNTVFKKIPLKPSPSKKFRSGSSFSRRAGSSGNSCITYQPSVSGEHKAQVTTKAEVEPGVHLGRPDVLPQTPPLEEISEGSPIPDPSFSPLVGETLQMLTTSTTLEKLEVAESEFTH

Row | SMILES | remaining binding at 1 µM [1] | remaining binding at 1 µM (PIP5K1A) | remaining binding at 1 µM (TRKC) | remaining binding at 1 µM (PRKG1) | remaining binding at 1 µM (LTK) | remaining binding at 1 µM (MEK2) | remaining binding at 1 µM (PIP5K1C) | remaining binding at 1 µM (MAP4K4) | remaining binding at 1 µM (TLK2) | remaining binding at 1 µM (JNK3) | remaining binding at 1 µM (NDR1) | remaining binding at 1 µM (CSNK1G3) | remaining binding at 1 µM (CTK) | remaining binding at 1 µM (PKNB(M. tuberculosis))
1 | CNc1c(-c2cnn([C@H]3CCN(C(C)=O)C[C@@H]3F)c2)cnc2[nH]cc(Cl)c12 [Compound 77, 1-((3S,4S)-4-(4-(3-chloro-4-(methylamino)-1H-pyrrolo[2,3-b]pyridin-5-yl)-1H-pyrazol-1-yl)-3-fluoropiperidin-1-yl)ethan-1-one] | 93% | 7.7% | 51% | 100% | 75% | 31% | 37% | 58% | 99% | 1.9% | 74% | 24% | 97% | 30%
2 | CNc1c(-c2ccc(C(=O)N3CCC(N4CCOCC4)CC3)cc2)cnc2[nH]cc(Cl)c12 [Compound 96, (4-(3-chloro-4-(methylamino)-1H-pyrrolo[2,3-b]pyridin-5-yl)phenyl)(4-morpholinopiperidin-1-yl)methanone] | 100% | 16% | 82% | 100% | 62% | 19% | 49% | 19% | 100% | 0.35% | 69% | 16% | 100% | 61%
3 | O=C(c1ccc(-c2cnc3[nH]cc(Cl)c3c2NC2CCCC2)cc1)N1CCC(N2CCOCC2)CC1 [Compound 101, (4-(3-chloro-4-(cyclopentylamino)-1H-pyrrolo[2,3-b]pyridin-5-yl)phenyl)(4-morpholinopiperidin-1-yl)methanone] | 80% | 12% | 100% | 89% | 72% | 87% | 57% | 78% | 100% | 7.6% | 84% | 93% | 95% | 89%
